Measured values published in the NIST ThermoML archive (doi:10.1021/je300280s).
Several values for one entry are separate records, joined by “and”; a condition that tells them apart may be missing. Identical values can stand only once.

Key:
[1] = xn = mol fraction of the nth substance listed; conditions: 101.3 kPa, Liquid, Vibrating tube method
[2] = excess molar enthalpy (molar enthalpy of mixing); xn = mol fraction of the nth substance listed; conditions: 101.3 kPa, Liquid, Flow calorimetry

CCCC(=O)OC [methyl butanoate] + O
Conditions	excess molar enthalpy, [2]	mass density, [1]
288.15 K, x1 = 0.000628	-0.00163 kcal/mol and -0.00164 kcal/mol	999.058 kg/m3
288.15 K, x1 = 0.000941	-0.00247 kcal/mol	999.037 kg/m3
288.15 K, x1 = 0.000943	-0.00244 kcal/mol	999.038 kg/m3
288.15 K, x1 = 0.001255	-0.00319 kcal/mol	999.019 kg/m3
288.15 K, x1 = 0.001257	-0.00321 kcal/mol	999.019 kg/m3
288.15 K, x1 = 0.001569	-0.00403 kcal/mol	998.999 kg/m3
288.15 K, x1 = 0.00157	-0.00397 kcal/mol	999.001 kg/m3
288.15 K, x1 = 0.001882	-0.00473 kcal/mol	998.985 kg/m3
288.15 K, x1 = 0.001884	-0.00482 kcal/mol	998.981 kg/m3
298.15 K, x1 = 0.000628	-0.00122 kcal/mol and -0.00123 kcal/mol	996.968 kg/m3 and 996.965 kg/m3
298.15 K, x1 = 0.000942	-0.00184 kcal/mol and -0.00183 kcal/mol	996.917 kg/m3 and 996.921 kg/m3
298.15 K, x1 = 0.001256	-0.0024 kcal/mol and -0.00241 kcal/mol	996.885 kg/m3 and 996.884 kg/m3
298.15 K, x1 = 0.001569	-0.00296 kcal/mol	996.85 kg/m3
298.15 K, x1 = 0.00157	-0.003 kcal/mol	996.838 kg/m3
298.15 K, x1 = 0.001882	-0.0036 kcal/mol	996.8 kg/m3
298.15 K, x1 = 0.001883	-0.00351 kcal/mol	996.81 kg/m3
298.15 K, x1 = 0.002195	-0.00402 kcal/mol	996.774 kg/m3
298.15 K, x1 = 0.002197	-0.00404 kcal/mol	996.773 kg/m3
308.15 K, x1 = 0.000626	-0.000837 kcal/mol	993.913 kg/m3
308.15 K, x1 = 0.000627	-0.000839 kcal/mol	993.914 kg/m3
308.15 K, x1 = 0.000939	-0.00124 kcal/mol	993.855 kg/m3
308.15 K, x1 = 0.000941	-0.00124 kcal/mol	993.855 kg/m3
308.15 K, x1 = 0.001253	-0.00165 kcal/mol	993.793 kg/m3
308.15 K, x1 = 0.001254	-0.00161 kcal/mol	993.798 kg/m3
308.15 K, x1 = 0.001565	-0.00199 kcal/mol	993.741 kg/m3
308.15 K, x1 = 0.001567	-0.00199 kcal/mol	993.742 kg/m3
308.15 K, x1 = 0.001878	-0.00241 kcal/mol	993.673 kg/m3
308.15 K, x1 = 0.00188	-0.00237 kcal/mol	993.682 kg/m3
308.15 K, x1 = 0.002191	-0.00271 kcal/mol	993.626 kg/m3
308.15 K, x1 = 0.002194	-0.00272 kcal/mol	993.63 kg/m3
318.15 K, x1 = 0.000941	-0.00066 kcal/mol	989.988 kg/m3
318.15 K, x1 = 0.000942	-0.000669 kcal/mol	989.983 kg/m3
318.15 K, x1 = 0.001254	-0.000865 kcal/mol	989.911 kg/m3
318.15 K, x1 = 0.001255	-0.000872 kcal/mol	989.908 kg/m3
318.15 K, x1 = 0.001567	-0.00106 kcal/mol	989.837 kg/m3
318.15 K, x1 = 0.001569	-0.00106 kcal/mol	989.832 kg/m3
318.15 K, x1 = 0.001879	-0.00126 kcal/mol	989.762 kg/m3
318.15 K, x1 = 0.001882	-0.00124 kcal/mol	989.758 kg/m3
318.15 K, x1 = 0.002192	-0.00141 kcal/mol	989.694 kg/m3
318.15 K, x1 = 0.002195	-0.00143 kcal/mol	989.679 kg/m3

CC(=O)C(C)=O [2,3-butanedione] + O
Conditions	excess molar enthalpy, [2]	mass density, [1]
288.15 K, x1 = 0.002059	–	1001.04 kg/m3
288.15 K, x1 = 0.002062	–	1001.04 kg/m3
288.15 K, x1 = 0.003086	–	1002 kg/m3
288.15 K, x1 = 0.003089	–	1002 kg/m3
288.15 K, x1 = 0.004111	–	1002.95 kg/m3
288.15 K, x1 = 0.004113	–	1002.96 kg/m3
288.15 K, x1 = 0.005132	–	1003.91 kg/m3
288.15 K, x1 = 0.005135	–	1003.91 kg/m3
288.15 K, x1 = 0.006153	–	1004.87 kg/m3
288.15 K, x1 = 0.006157	–	1004.87 kg/m3
288.18 K, x1 = 0.00103	-0.00487 kcal/mol	–
288.18 K, x1 = 0.001032	-0.00488 kcal/mol	–
288.18 K, x1 = 0.002059	-0.00976 kcal/mol	–
288.18 K, x1 = 0.002062	-0.00976 kcal/mol	–
288.18 K, x1 = 0.003086	-0.0146 kcal/mol	–
288.18 K, x1 = 0.003089	-0.0146 kcal/mol	–
288.18 K, x1 = 0.004111	-0.0193 kcal/mol	–
288.18 K, x1 = 0.004113	-0.0194 kcal/mol	–
288.18 K, x1 = 0.005132	-0.0241 kcal/mol	–
288.18 K, x1 = 0.005135	-0.0241 kcal/mol	–
288.18 K, x1 = 0.006153	-0.029 kcal/mol	–
288.18 K, x1 = 0.006157	-0.0288 kcal/mol	–
293.15 K, x1 = 0.001031	-0.00462 kcal/mol	999.136 kg/m3
293.15 K, x1 = 0.00206	-0.00926 kcal/mol	1000.07 kg/m3
293.15 K, x1 = 0.003088	-0.0138 kcal/mol	1001 kg/m3
293.15 K, x1 = 0.004114	-0.0182 kcal/mol	1001.9 kg/m3
293.15 K, x1 = 0.005136	-0.0227 kcal/mol	1002.82 kg/m3
293.15 K, x1 = 0.006158	-0.0272 kcal/mol	1003.73 kg/m3
298.15 K, x1 = 0.001032	-0.00443 kcal/mol and -0.00441 kcal/mol	997.937 kg/m3 and 997.929 kg/m3
298.15 K, x1 = 0.002061	-0.00881 kcal/mol	998.816 kg/m3
298.15 K, x1 = 0.002062	-0.00882 kcal/mol	998.823 kg/m3
298.15 K, x1 = 0.003089	-0.0132 kcal/mol	999.697 kg/m3 and 999.692 kg/m3
298.15 K, x1 = 0.004113	-0.0175 kcal/mol	1000.57 kg/m3
298.15 K, x1 = 0.004114	-0.0174 kcal/mol	1000.56 kg/m3
298.15 K, x1 = 0.005137	-0.0218 kcal/mol	1001.45 kg/m3 and 1001.43 kg/m3
298.15 K, x1 = 0.00616	-0.0261 kcal/mol	1002.32 kg/m3 and 1002.3 kg/m3
303.15 K, x1 = 0.001032	-0.00411 kcal/mol	996.49 kg/m3
303.15 K, x1 = 0.002061	-0.00821 kcal/mol	997.341 kg/m3
303.15 K, x1 = 0.003089	-0.0123 kcal/mol	998.182 kg/m3
303.15 K, x1 = 0.004114	-0.0163 kcal/mol	999.012 kg/m3
303.15 K, x1 = 0.005137	-0.0203 kcal/mol	999.84 kg/m3
303.15 K, x1 = 0.006159	-0.0243 kcal/mol	1000.66 kg/m3
308.15 K, x1 = 0.001031	-0.00386 kcal/mol and -0.00387 kcal/mol	994.828 kg/m3 and 994.831 kg/m3
308.15 K, x1 = 0.00206	-0.00777 kcal/mol and -0.00778 kcal/mol	995.637 kg/m3
308.15 K, x1 = 0.003086	-0.0116 kcal/mol	996.432 kg/m3
308.15 K, x1 = 0.003088	-0.0117 kcal/mol	996.443 kg/m3
308.15 K, x1 = 0.004109	-0.0155 kcal/mol	997.222 kg/m3
308.15 K, x1 = 0.004114	-0.0155 kcal/mol	997.237 kg/m3
308.15 K, x1 = 0.005131	-0.0194 kcal/mol	998.031 kg/m3
308.15 K, x1 = 0.005137	-0.0194 kcal/mol	998.026 kg/m3
308.15 K, x1 = 0.006152	-0.0232 kcal/mol	998.821 kg/m3
308.15 K, x1 = 0.00616	-0.0232 kcal/mol	998.816 kg/m3
313.15 K, x1 = 0.001032	-0.00352 kcal/mol	992.976 kg/m3
313.15 K, x1 = 0.002062	-0.0071 kcal/mol	993.745 kg/m3
313.15 K, x1 = 0.003091	-0.0107 kcal/mol	994.499 kg/m3
313.15 K, x1 = 0.004116	-0.0142 kcal/mol	995.251 kg/m3
313.15 K, x1 = 0.005139	-0.0178 kcal/mol	996.015 kg/m3
313.15 K, x1 = 0.006161	-0.0213 kcal/mol	996.763 kg/m3
318.15 K, x1 = 0.001031	-0.00324 kcal/mol	990.924 kg/m3
318.15 K, x1 = 0.001032	-0.00325 kcal/mol	990.928 kg/m3
318.15 K, x1 = 0.00206	-0.00659 kcal/mol	991.645 kg/m3
318.15 K, x1 = 0.002062	-0.00661 kcal/mol	991.65 kg/m3
318.15 K, x1 = 0.003088	-0.01 kcal/mol	992.362 kg/m3
318.15 K, x1 = 0.00309	-0.00996 kcal/mol	992.361 kg/m3
318.15 K, x1 = 0.004114	-0.0133 kcal/mol	993.082 kg/m3
318.15 K, x1 = 0.004116	-0.0133 kcal/mol	993.069 kg/m3
318.15 K, x1 = 0.005137	-0.0167 kcal/mol	993.801 kg/m3
318.15 K, x1 = 0.00514	-0.0168 kcal/mol	993.799 kg/m3
318.15 K, x1 = 0.006159	-0.0201 kcal/mol	994.517 kg/m3
318.15 K, x1 = 0.006164	-0.0202 kcal/mol	994.503 kg/m3
